Experimental data reported in US7078437B2, “Apolipoprotein D degradation inhibitor” (Kao Corporation, priority 2003, dated 2006).

Tested on: apolipoprotein D
Assay: Inhibitory effect against degradation of apolipoprotein D (human sweat concentrate treated with Brevibacterium epiderumidis cells, western blot)
Type: biochemical
Conditions: human sweat concentrate as apolipoprotein-D-containing sample; Brevibacterium epiderumidis cells as protease, about 10^8 cfu/mL; 37° C. for 24 hours; antibody-staining after SDS-PAGE
Protocol: Inhibitory effects of lauric acid and oleic acid on degradation of apolipoprotein D were studied using a human sweat concentrate as an apolipoprotein-D-containing sample and Brevibacterium epiderumidis cells as a protease.
(1) Preparation of Sweat Samples
The absorbent cotton balls were squeezed, whereby a solution (57.5 mL) was collected. The collected solution was filtered through a 0.45-μm filter and then concentrated by use of a MILLIPOR Centriprep YM-10.
Distilled water was added again to the concentrate, and the resultant solution was concentrated in a similar manner by use of a Centriprep YM-10, to thereby remove substances of low molecular weight. The product was employed as a sweat concentrate.
(2) 100 mM Tris-HCl buffer (0.03 mL), distilled water (0.02 mL), and each of lauric acid (Sigma) and oleic acid (Sigma) were added to an aliquot (0.04 mL) of the sweat concentrate prepared through the above method (1). […] Briefly, the cell-treated sweat concentrate was subjected to SDS polyacrylamide electrophoresis (SDS-PAGE) by use of a Ready Gel J (15% of separation gel concentration, Bio-Rad Laboratories, Inc.), and the thus-separated proteins were electrically transcribed from the gel onto a PVDF filter (Millipore Corporation, Immobilon transfer membrane). […]

SMILES: CCCCCCCC/C=C\CCCCCCCC(=O)O [oleic acid]
- degradation of apolipoprotein D (percent residue of apolipoprotein D): degradation of apolipoprotein D was suppressed

SMILES: CCCCCCCCCCCC(=O)O [lauric acid]
- degradation of apolipoprotein D (percent residue of apolipoprotein D): degradation of apolipoprotein D was suppressed
